The molecules below were run against T1, Human Cav3.2 Channels (Homo sapiens, UniProt O95180) (assay: Electrophysiologic (whole-cell patch-clamp) assessment of calcium channel activity in HEK293 cells stably expressing hCav3.2). Conditions: −77 mV, geometric mean, read-out: Human Cav3.2 −77 mV IC50 (μM) GeoMean.
T1 construct: expressed in transfected cells
Format: cell-based
Description: (i) In Vitro Methods—Electrophysiologic Assessment of Calcium Channel Activity:
Patch-clamp recordings were performed using HEK293 cells stably expressing hCav3.2. Cells were plated in T175 flasks and grown at 37° C. and under 5% CO2 to approximately 50% confluency. On the day of the experiment, cells were harvested with Detachin™ cell detachment solution (Genlantis, San Diego, Calif.) and maintained in serum-free culture medium supplemented with 25 mM HEPES up to several hours prior to experiment. Whole-cell patch-clamp recordings were obtained using extracellular saline consisting of (mM): 87.5 CsCl, 40 TEA-Cl, 5 CaCl2, 1 MgCl2, 10 HEPES, 10 glucose. The pH was adjusted to 7.2 with CsOH and the osmolarity was adjusted to approximately 310 mOsm with sucrose. Intracellular solution consisted of (mM): 112 CsCl, 27 CsF, 2 NaCl, 8.2 EGTA, 10 HEPES. Prior to an experiment 4 mM Mg2ATP was added and the pH was adjusted to 7.2 with CsOH with an osmolarity of approximately 290 mOsm. A two-pulse voltage protocol was utilized to assess compound inhibition. First, cells were held with an 8 s pre-pulse at −100 mV prior to a 160 ms test pulse to −30 mV. This was followed by an 8 s pre-pulse at approximately −75 mV prior to a […]. Increasing concentrations of antagonist were applied to individual cells in a multi-addition format with 5 minutes in each test concentration. For each cell, responses were normalized to dimethyl sulfoxide vehicle control to generate concentration-response curves.

T1 sequence (O95180 whole entry): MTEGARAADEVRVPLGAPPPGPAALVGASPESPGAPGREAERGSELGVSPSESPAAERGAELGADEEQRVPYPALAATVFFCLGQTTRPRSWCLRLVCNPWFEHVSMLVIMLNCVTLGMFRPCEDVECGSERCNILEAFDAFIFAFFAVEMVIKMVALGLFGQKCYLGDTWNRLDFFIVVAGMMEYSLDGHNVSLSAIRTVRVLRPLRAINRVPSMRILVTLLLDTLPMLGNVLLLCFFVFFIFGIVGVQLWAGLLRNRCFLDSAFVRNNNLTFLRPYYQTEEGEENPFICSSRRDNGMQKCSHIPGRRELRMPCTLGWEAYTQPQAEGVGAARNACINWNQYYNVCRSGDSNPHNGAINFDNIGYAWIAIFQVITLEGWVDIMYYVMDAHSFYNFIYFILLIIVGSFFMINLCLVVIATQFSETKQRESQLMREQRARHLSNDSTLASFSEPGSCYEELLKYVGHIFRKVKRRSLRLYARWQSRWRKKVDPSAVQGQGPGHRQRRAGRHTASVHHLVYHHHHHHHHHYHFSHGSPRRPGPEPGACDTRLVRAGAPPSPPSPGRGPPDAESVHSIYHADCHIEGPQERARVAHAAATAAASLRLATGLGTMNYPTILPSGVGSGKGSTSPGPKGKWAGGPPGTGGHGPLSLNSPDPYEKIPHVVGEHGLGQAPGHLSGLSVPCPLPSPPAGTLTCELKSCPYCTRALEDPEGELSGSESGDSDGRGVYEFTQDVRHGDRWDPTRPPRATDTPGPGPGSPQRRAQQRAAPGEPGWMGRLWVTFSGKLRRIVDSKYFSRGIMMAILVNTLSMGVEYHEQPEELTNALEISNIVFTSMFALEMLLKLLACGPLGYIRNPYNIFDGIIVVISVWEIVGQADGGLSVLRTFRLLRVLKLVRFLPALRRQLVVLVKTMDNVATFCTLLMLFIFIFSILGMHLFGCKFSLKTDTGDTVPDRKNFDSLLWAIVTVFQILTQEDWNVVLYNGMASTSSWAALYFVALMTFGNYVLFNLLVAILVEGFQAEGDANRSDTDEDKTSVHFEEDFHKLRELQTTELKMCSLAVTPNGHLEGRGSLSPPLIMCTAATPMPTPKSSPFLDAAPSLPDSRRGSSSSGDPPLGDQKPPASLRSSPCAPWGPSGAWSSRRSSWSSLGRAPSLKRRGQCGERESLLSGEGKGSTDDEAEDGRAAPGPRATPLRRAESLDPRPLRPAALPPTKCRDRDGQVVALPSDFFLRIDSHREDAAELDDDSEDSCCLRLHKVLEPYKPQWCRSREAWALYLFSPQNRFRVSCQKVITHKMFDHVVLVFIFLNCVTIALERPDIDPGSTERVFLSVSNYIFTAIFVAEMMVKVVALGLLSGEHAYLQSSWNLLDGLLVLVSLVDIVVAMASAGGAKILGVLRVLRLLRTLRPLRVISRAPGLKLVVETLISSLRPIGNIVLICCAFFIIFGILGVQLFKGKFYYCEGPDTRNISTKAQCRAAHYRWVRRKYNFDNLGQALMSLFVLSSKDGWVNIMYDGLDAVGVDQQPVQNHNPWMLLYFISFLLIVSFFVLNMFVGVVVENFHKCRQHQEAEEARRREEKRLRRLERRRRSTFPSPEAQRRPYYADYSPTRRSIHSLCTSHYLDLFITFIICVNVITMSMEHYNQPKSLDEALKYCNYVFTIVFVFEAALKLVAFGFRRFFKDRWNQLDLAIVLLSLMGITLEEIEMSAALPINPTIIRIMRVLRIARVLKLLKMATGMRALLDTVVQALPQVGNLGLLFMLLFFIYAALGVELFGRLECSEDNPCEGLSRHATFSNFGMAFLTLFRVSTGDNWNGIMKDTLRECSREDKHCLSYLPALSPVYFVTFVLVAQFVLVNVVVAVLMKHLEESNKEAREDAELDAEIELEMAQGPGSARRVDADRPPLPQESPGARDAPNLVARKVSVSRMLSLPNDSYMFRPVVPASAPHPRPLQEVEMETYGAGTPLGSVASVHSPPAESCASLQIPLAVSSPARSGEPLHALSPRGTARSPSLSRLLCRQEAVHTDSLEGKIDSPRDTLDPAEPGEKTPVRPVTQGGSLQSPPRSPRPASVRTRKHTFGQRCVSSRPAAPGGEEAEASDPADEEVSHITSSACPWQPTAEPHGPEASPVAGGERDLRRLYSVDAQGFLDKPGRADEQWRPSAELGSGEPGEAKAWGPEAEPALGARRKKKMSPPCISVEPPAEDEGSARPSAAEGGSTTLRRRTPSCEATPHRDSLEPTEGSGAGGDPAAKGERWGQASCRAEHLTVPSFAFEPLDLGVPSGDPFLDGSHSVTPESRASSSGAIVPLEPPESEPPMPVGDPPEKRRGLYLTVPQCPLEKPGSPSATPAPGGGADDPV

| IC50 | Structure (SMILES) |
| --- | --- |
| 10.9 µM | O=C(Nc1cc(C(=O)N2CCN3CCC[C@@H]3C2)ccc1Cl)c1ccc(F)cc1 [Example 68, N-{2-chloro-5-[(8aR)-hexahydropyrrolo[1,2-a]pyrazin-2(1H)-ylcarbonyl]phenyl}-4-fluorobenzamide] |
| 1.9 µM | O=C(c1cccc(S(=O)(=O)Nc2cccc(C(F)(F)F)c2)c1)N1CCN2CCC[C@H]2C1 [Example 6, 3-[(8aS)-hexahydropyrrolo[1,2-a]pyrazin-2(1H)-ylcarbonyl]-N-[3-(trifluoromethyl)phenyl]benzenesulfonamide] |
| 7.3 µM | O=C(c1cccc(S(=O)(=O)Nc2ccccc2Cl)c1)N1CCN2CCC[C@@H]2C1 [Example 9, N-(2-chlorophenyl)-3-[(8aR)-hexahydropyrrolo[1,2-a]pyrazin-2(1H)-ylcarbonyl]benzenesulfonamide] |
| > 10 µM | O=C(c1cccc(S(=O)(=O)Nc2ccccc2C(F)(F)F)c1)N1CCN2CCC[C@@H]2C1 [Example 27, 3-[(8aR)-hexahydropyrrolo[1,2-a]pyrazin-2(1H)-ylcarbonyl]-N-[2-(trifluoromethyl)phenyl]benzenesulfonamide] |
| 1.8 µM | O=C(NCCC(c1ccccc1)c1ccccc1)c1cccc(S(=O)(=O)N2CCN3CCC[C@H]3C2)c1 [Example 55, N-(3,3-diphenylpropyl)-3-[(8aS)-hexahydropyrrolo[1,2-a]pyrazin-2(1H)-ylsulfonyl]benzamide] |
| 1.8 µM | O=C(c1cccc(S(=O)(=O)NCCC(c2ccccc2)c2ccccc2)c1)N1CCN2CCC[C@H]2C1 [Example 30, N-(3,3-diphenylpropyl)-3-[(8aS)-hexahydropyrrolo[1,2-a]pyrazin-2(1H)-ylcarbonyl]benzenesulfonamide] |
| 6.5 µM | O=C(Nc1ccc(C(=O)N2CCN3CCC[C@@H]3C2)cc1Cl)C(c1ccccc1)c1ccccc1 [Example 75, N-{2-chloro-4-[(8aR)-hexahydropyrrolo[1,2-a]pyrazin-2(1H)-ylcarbonyl]phenyl}-2,2-diphenylacetamide] |
| 1.8 µM | O=C(c1cccc(S(=O)(=O)Nc2ccc(F)cc2)c1)N1CCN2CCC[C@H]2C1 [Example 5, N-(4-fluorophenyl)-3-[(8aS)-hexahydropyrrolo[1,2-a]pyrazin-2(1H)-ylcarbonyl]benzenesulfonamide] |
| 3.18 µM | O=C(c1cc(S(=O)(=O)N2CCN(c3ccc(F)cc3)CC2)c(F)cc1Cl)N1CCN2CCC[C@@H]2C1 [Example 67, (8aR)-2-(2-chloro-4-fluoro-5-{[4-(4-fluorophenyl)piperazin-1-yl]sulfonyl}benzoyl)octahydropyrrolo[1,2-a]pyrazine] |
| 1.2 µM | O=C(c1cccc(S(=O)(=O)N2CCN3CCC[C@H]3C2)c1)N1CCN(C(c2ccccc2)c2ccccc2)CC1 [Example 54, (8aS)-2-({3-[(4-benzhydrylpiperazin-1-yl)carbonyl]phenyl}sulfonyl)octahydropyrrolo[1,2-a]pyrazine] |
| 2.1 µM | O=C(c1cccc(S(=O)(=O)NCCC(c2ccccc2)c2ccccc2)c1)N1CCN2CCC[C@@H]2C1 [Example 29, N-(3,3-diphenylpropyl)-3-[(8aR)-hexahydropyrrolo[1,2-a]pyrazin-2(1H)-ylcarbonyl]benzenesulfonamide] |
| 4.7 µM | O=C(c1cccc(S(=O)(=O)Nc2cc(F)ccc2F)c1)N1CCN2CCC[C@H]2C1 [Example 12, N-(2,5-difluorophenyl)-3-[(8aS)-hexahydropyrrolo[1,2-a]pyrazin-2(1H)-ylcarbonyl]benzenesulfonamide] |
| 4.1 µM | O=C(c1cccc(S(=O)(=O)Nc2ccc(F)cc2)c1)N1CCC(N2CCCC2)CC1 [Example 40, N-(4-fluorophenyl)-3-[(4-pyrrolidin-1-ylpiperidin-1-yl)carbonyl]benzenesulfonamide] |
| 5.8 µM | O=C(c1cccc(S(=O)(=O)Nc2ccc(C(F)(F)F)cc2)c1)N1CCC(N2CCCC2)CC1 [Example 42, 3-[(4-pyrrolidin-1-ylpiperidin-1-yl)carbonyl]-N-[4-(trifluoromethyl)phenyl]benzenesulfonamide] |
| 6.6 µM | O=C(c1cccc(S(=O)(=O)Nc2cccc(F)c2F)c1)N1CCN2CCC[C@H]2C1 [Example 11, N-(2,3-difluorophenyl)-3-[(8aS)-hexahydropyrrolo[1,2-a]pyrazin-2(1H)-ylcarbonyl]benzenesulfonamide] |
| 1.5 µM | O=C(c1cccc(S(=O)(=O)Nc2ccccc2Cl)c1)N1CCN2CCC[C@H]2C1 [Example 10, N-(2-chlorophenyl)-3-[(8aS)-hexahydropyrrolo[1,2-a]pyrazin-2(1H)-ylcarbonyl]benzenesulfonamide] |

| IC50 | Structure (SMILES) |
| --- | --- |
| 1.84 µM | O=C(c1ccc(F)c(NS(=O)(=O)c2cccc(C(F)(F)F)c2)c1)N1CCN2CCC[C@@H]2C1 [Example 65, N-{2-fluoro-5-[(8aR)-hexahydropyrrolo[1,2-a]pyrazin-2(1H)-ylcarbonyl]phenyl}-3-(trifluoromethyl)benzenesulfonamide] |
| > 10 µM | O=C(c1cccc(S(=O)(=O)Nc2cccc(F)c2)c1)N1CCC(N2CCCCC2)CC1 [Example 48, 3-(1,4′-bipiperidin-1′-ylcarbonyl)-N-(3-fluorophenyl)benzenesulfonamide] |
| 5 µM | O=C(N[C@@H]1C[C@H]1c1ccccc1)c1cccc(S(=O)(=O)N2CCN3CCC[C@H]3C2)c1 [Example 60, 3-[(8aS)-hexahydropyrrolo[1,2-a]pyrazin-2(1H)-ylsulfonyl]-N-[(1R,2S)-2-phenylcyclopropyl]benzamide] |
| 1.8 µM | O=C(Nc1cc(C(=O)N2CCN3CCC[C@@H]3C2)ccc1F)c1cc(Cl)cc(Cl)c1 [Example 73, 3,5-dichloro-N-{2-fluoro-5-[(8aR)-hexahydropyrrolo[1,2-a]pyrazin-2(1H)-ylcarbonyl]phenyl}benzamide] |
| > 10 µM | CC(C)N(c1cccc(C(=O)N2CCN3CCC[C@@H]3C2)c1)S(=O)(=O)c1cccc(C(F)(F)F)c1 [Example 77, N-{3-[(8aR)-hexahydropyrrolo[1,2-a]pyrazin-2(1H)-ylcarbonyl]phenyl}-N-isopropyl-3-(trifluoromethyl)benzenesulfonamide] |
| 7.2 µM | O=C(c1cc(S(=O)(=O)NCC(c2ccccc2)c2ccccc2)c(F)cc1Cl)N1CCN2CCC[C@@H]2C1 [Example 70, 4-chloro-N-(2,2-diphenylethyl)-2-fluoro-5-[(8aR)-hexahydropyrrolo[1,2-a]pyrazin-2(1H)-ylcarbonyl]benzenesulfonamide] |
| 0.9 µM | O=C(c1cccc(S(=O)(=O)N2CCN3CCC[C@H]3C2)c1)N1CCN(C(c2ccc(F)cc2)c2ccc(F)cc2)CC1 [Example 51, (8aS)-2-{[3-({4-[bis(4-fluorophenyl)methyl]piperazin-1-yl}carbonyl)phenyl]sulfonyl}octahydropyrrolo[1,2-a]pyrazine] |
| 4.9 µM | O=C(c1cccc(S(=O)(=O)Nc2cccc(C(F)(F)F)c2)c1)N1CCC(N2CCCC2)CC1 [Example 43, 3-[(4-pyrrolidin-1-ylpiperidin-1-yl)carbonyl]-N-[3-(trifluoromethyl)phenyl]benzenesulfonamide] |
| 1.3 µM | O=C(c1cccc(S(=O)(=O)Nc2ccc(C(F)(F)F)cc2)c1)N1CCC(N2CCCCC2)CC1 [Example 49, 3-(1,4′-bipiperidin-1′-ylcarbonyl)-N-[4-(trifluoromethyl)phenyl]benzenesulfonamide] |
| 5.9 µM | O=C(c1cccc(S(=O)(=O)Nc2cccc(Cl)c2)c1)N1CCN2CCC[C@H]2C1 [Example 21, N-(3-chlorophenyl)-3-[(8aS)-hexahydropyrrolo[1,2-a]pyrazin-2(1H)-ylcarbonyl]benzenesulfonamide] |
| 5 µM | O=C(c1cccc(S(=O)(=O)Nc2ccccc2)c1)N1CCC(N2CCCC2)CC1 [Example 41, N-phenyl-3-[(4-pyrrolidin-1-ylpiperidin-1-yl)carbonyl]benzenesulfonamide] |
| > 10 µM | O=C(Nc1cc(C(=O)N2CCN3CCC[C@@H]3C2)ccc1Cl)C(c1ccccc1)c1ccccc1 [Example 78, N-{2-chloro-5-[(8aR)-hexahydropyrrolo[1,2-a]pyrazin-2(1H)-ylcarbonyl]phenyl}-2,2-diphenylacetamide] |
| 1 µM | O=C(c1cccc(S(=O)(=O)N2CCN(C(c3ccccc3)c3ccccc3)CC2)c1)N1CCN2CCC[C@@H]2C1 [Example 24, (8aR)-2-{3-[(4-benzhydrylpiperazin-1-yl)sulfonyl]benzoyl}octahydropyrrolo[1,2-a]pyrazine] |
| 3.8 µM | O=C(c1cccc(S(=O)(=O)Nc2ccccc2F)c1)N1CCC(N2CCCCC2)CC1 [Example 47, 3-(1,4′-bipiperidin-1′-ylcarbonyl)-N-(2-fluorophenyl)benzenesulfonamide] |
| 4.6 µM | O=C(c1cccc(S(=O)(=O)Nc2cccc(C(F)(F)F)c2)c1)N1CCN2CCCCC2C1 (centres unmarked) [Example 38, 3-(octahydro-2H-pyrido[1,2-a]pyrazin-2-ylcarbonyl)-N-[3-(trifluoromethyl)phenyl]benzenesulfonamide] |
| 4.8 µM | O=C(c1cccc(S(=O)(=O)N2CCN(c3ccc(F)cc3)CC2)c1)N1CCN2CCC[C@H]2C1 [Example 35, (8aS)-2-(3-{[4-(4-fluorophenyl)piperazin-1-yl]sulfonyl}benzoyl)octahydropyrrolo[1,2-a]pyrazine] |

— patent publication US8741899B2, “(4-chloro-2-fluoro-N-(2-fluorophenyl)-5-[(8aR)-hexahydropyrrolo-[1,2-a]pyrazin-2(1H)-ylcarbonyl]-benzenesulfonamide, and pharmaceutically acceptable salts thereof” (AbbVie Inc., priority 2009, dated 2014)
